Experimental data taken from US20050171037A1, “Therapeutic combinations” (Agouron Pharmaceuticals, Inc., priority 2004, published 2005).
Read-outs that look alike come from different tables or passages of the source.

How the values were obtained:
[1] = Compound B pharmacokinetics after oral administration of a single dose alone (fasting) and with ritonavir (fed), human subjects; type: in vivo; settings: for half-life / Cmax / AUC / Tmax: plasma; for half-life / Ae % (drug recovered unchanged in urine, percent of administered dose): arithmetic mean; for half-life: read-out: t1/2 (terminal phase plasma half-life) (converted); for AUC: read-out: AUC (area under the concentration-time curve from time 0 to infinity); for Tmax: median
Procedure: Nos. 11/008325, filed Dec. 8, 2004, and 60/591,351, filed Jul. 26, 2004, all of which are hereby incorporated by reference for this purpose. A total of 21 human subjects were administered a single 300 mg, 900 mg, 1800 mg, or 3600 mg dose of a spray-dried composition comprising 90 wt % amorphous Compound B and 10 wt % hydroxypropyl methyl cellulose acetate succinate (HPMCAS) under fasting conditions. […] Each plasma sample was analyzed for the presence of Compound B and the following pharmacokinetic parameters for Compound B were determined for each subject: area under the concentration-time curve from time 0 extrapolated to infinity (AUC), maximum observed plasma concentration (Cmax), time to first occurrence of Cmax (Tmax), terminal phase plasma half-life (t %), CL/F=apparent oral clearance, and cumulative amount of drug recovered unchanged in the urine expressed as a percentage of administered dose (Ae %).

[2] = as above; type: in vivo; settings: geometric mean
[3] = po, 300 mg, single oral dose 300 mg (active dose 270 mg), alone, fasting
[4] = po, 300 mg, single oral dose 300 mg (active dose 270 mg), alone, fasting, geometric mean
[5] = po, 900 mg, single oral dose 900 mg (active dose 810 mg), alone, fasting
[6] = po, 900 mg, single oral dose 900 mg (active dose 810 mg), alone, fasting, geometric mean
[7] = po, 1800 mg, single oral dose 1800 mg (active dose 1620 mg), alone, fasting
[8] = po, 1800 mg, single oral dose 1800 mg (active dose 1620 mg), alone, fasting, geometric mean
[9] = po, 3600 mg, single oral dose 3600 mg (active dose 3240 mg), alone, fasting
[10] = po, 3600 mg, single oral dose 3600 mg (active dose 3240 mg), alone, fasting, geometric mean
[11] = po, single oral dose 300 mg (active 270 mg) + ritonavir (100 mg every 12 hours for 3 doses), fed
[12] = po, single oral dose 450 mg (active 405 mg) + ritonavir (100 mg every 12 hours for 3 doses), fed

For `Cc1c(O)cccc1C(=O)N[C@@H](Cc1ccccc1)[C@H](O)C(=O)N1CC(F)(F)C(C)(C)[C@H]1C(=O)NCC(F)(F)F` [Compound B, 4,4-difluoro-1-{(2S,3S)-2-hydroxy-3-[(3-hydroxy-2-methylbenzoyl)amino]-4-phenylbutanoyl}-3,3-dimethyl-N-(2,2,2-trifluoroethyl)-L-prolinamide], the half-life [1, 3] was 2.76 h, the Cmax [1, 4] was 1530 ng/mL and the AUC [1, 4] was 6110 ng·h/mL. It also gave a Tmax [1, 3] of 0.5 h, a half-life [1, 5] of 3.25 h and a Cmax [1, 6] of 4610 ng/mL. It also gave an AUC [1, 6] of 28200 ng·h/mL, a Tmax [1, 5] of 2 h and a half-life [1, 7] of 3.6 h. It also gave a Cmax [1, 8] of 8670 ng/mL, an AUC [1, 8] of 74500 ng·h/mL and a Tmax [1, 7] of 3.02 h. The half-life [1, 9] was 4.15 h, the Cmax [1, 10] was 14500 ng/mL and the AUC [1, 10] was 164000 ng·h/mL. It also gave a Tmax [1, 9] of 4 h, a half-life [1, 11] of 8.54 h and a Tmax [1, 11] of 4 h. The half-life [1, 12] was 10.3 h, the Cmax ([1]; po, single oral dose 450 mg (active 405 mg) + ritonavir (100 mg every 12 hours for 3 doses), fed, geometric mean) was 3830 ng/mL and the Tmax [1, 12] was 4.02 h. The AUC ([1]; single oral dose 300 mg (active 270 mg) + ritonavir (100 mg every 12 hours for 3 doses), fed, geometric mean) was 34800 ng·h/mL, the “Ae % (drug recovered unchanged in urine, percent of administered dose)” value ([1]; single oral dose 300 mg (active 270 mg) + ritonavir (100 mg every 12 hours for 3 doses), fed) was 17.7% and the “Ae % (drug recovered unchanged in urine, percent of administered dose)” value ([1]; single oral dose 300 mg (active dose 270 mg), alone, fasting) was 3.67%. The “CL/F (apparent oral clearance)” value ([1]; single oral dose 300 mg (active dose 270 mg), alone, fasting, geometric mean) was 44.2 L/h, the “Ae % (drug recovered unchanged in urine, percent of administered dose)” value ([1]; single oral dose 450 mg (active 405 mg) + ritonavir (100 mg every 12 hours for 3 doses), fed) was 17.6% and the “AUC (area under the concentration-time curve from time 0 to infinity)” value ([1]; single oral dose 450 mg (active 405 mg) + ritonavir (100 mg every 12 hours for 3 doses), fed, geometric mean) was 51600 ng·h/mL. For the same compound, the “Ae % (drug recovered unchanged in urine, percent of administered dose)” value ([1]; single oral dose 900 mg (active dose 810 mg), alone, fasting) was 4.89%, the “CL/F (apparent oral clearance)” value ([1]; single oral dose 900 mg (active dose 810 mg), alone, fasting, geometric mean) was 28.7 L/h and the “Ae % (drug recovered unchanged in urine, percent of administered dose)” value ([1]; single oral dose 1800 mg (active dose 1620 mg), alone, fasting) was 10.4%. For the same compound, the “CL/F (apparent oral clearance)” value ([1]; single oral dose 1800 mg (active dose 1620 mg), alone, fasting, geometric mean) was 21.7 L/h, the “Ae % (drug recovered unchanged in urine, percent of administered dose)” value ([1]; single oral dose 3600 mg (active dose 3240 mg), alone, fasting) was 11.8% and the “CL/F (apparent oral clearance)” value ([1]; single oral dose 3600 mg (active dose 3240 mg), alone, fasting, geometric mean) was 19.7 L/h. The Cmax ([2]; plasma, po, single oral dose 300 mg (active 270 mg) + ritonavir (100 mg every 12 hours for 3 doses)) was 3100 ng/mL, the “CL/F (apparent oral clearance)” value ([2]; single oral dose 300 mg (active 270 mg) + ritonavir (100 mg every 12 hours for 3 doses)) was 7.75 L/h and the “CL/F (apparent oral clearance)” value ([2]; single oral dose 450 mg (active 405 mg) + ritonavir (100 mg every 12 hours for 3 doses)) was 7.84 L/h.
